Patent US20100234314A1, “IDARUBICIN FOR THE TREATMENT OF LYMPHOMA IN A DOG” (priority 2007, published 2010)
Where two headings read alike, the source gives them in different places.

Columns and labels:
[1] = system: 3132 canine lymphoma cell line (B-cell LSA line); test: In vitro anti-proliferation assay (MTS), 3132 cell line; type: cell-based; conditions: Canis lupus familiaris; 3132, B-cell LSA line
Source text: (§1) (2) Ex vivo canine lymphoma nodal tissue. […] (3) In vitro Anti-Proliferation Assay Method.
(§2) (Mean Drug Treatment OD−Mean media blank OD)×100=% Control Proliferation
(§3) (Mean Untreated OD−Mean media blank OD)

[2] = system: CL-1 canine lymphoma cell line (T-cell LSA line); test: In vitro anti-proliferation assay (MTS), CL-1 cell line; type: cell-based; conditions: Canis lupus familiaris; CL-1, T-cell LSA line
Source text: as §1, §2, §3

[3] = system: canine lymphoma cell lines; test: Anti-proliferation, canine lymphoma cell lines; type: cell-based; conditions: summary
Source text: as §1, §2, §3

[4] = Oral bioavailability in dogs, effect of feeding; type: in vivo; conditions: dog
[5] = system: ex-vivo derived canine lymphoma cells (nodal tissue); test: In vitro anti-proliferation assay (MTS), ex vivo canine lymphoma nodal tissue; conditions: for Inhibition of the proliferation of canine lymphoma nodal tissues: summary; for IC50: read-out: Anti-proliferation IC50
Source text: The study utilized an in vitro assay run with ex-vivo derived canine lymphoma cells and with established cell lines maintained over many passages using standard tissue culture techniques. Nodal tissues were obtained from canine lymphoma patients at the MSU Veterinary Clinic.
(2) Ex vivo canine lymphoma nodal tissue. Malignant lymph nodes were excised by veterinary staff at Michigan State University (MSU) Veterinary College, placed into transport media (Advanced RPMI 1640 complete medium supplemented with 10% Fetal Bovine Serum (FBS), 100 U/mL penicillin, 100 ug/mL streptomycin and 0.25 ug/mL Amphotercin B (Invitrogen/Gibco®). Nodes were processed within 24 hours of removal by mincing into tiny pieces and passing through a tissue sieve. Cell suspensions were spun at 200×g, supernatant was removed, and the cell pellet was resuspended in NH4Cl (0.15M) for 10 minutes at room temperature. The cell suspension was pelleted by centrifugation; the NH4Cl was removed and washed once with Hanks Balanced Salt Solution (HBSS), followed by re-suspension in Proliferation Medium (Advanced RPMI complete, 1% FBS, 50 nM 2-Mercaptoethanol, 100 U/mL penicillin, 100 ug/mL streptomycin and 0.25 ug/mL Amphotercin B). The cell suspension was then passed through a 100 μm nylon cell strainer (BD-Falcon) and counted using a hemacytometer. Cells were cultured in either Proliferation Medium alone, Proliferation Medium supplemented with 0.005% Pansorbin® (Heat inactivated, formalin-fixed Staphylococcus Aureus cells (SAC), Calbiochem), and 10 ng/mL canine IL-2 (R&D Systems), or Proliferation Medium supplemented with 125 ng/mL concavalin A (Sigma) and 125 ng/mL lipopolysaccamide (LPS; Calbiochem). (3) In vitro Anti-Proliferation Assay Method. Cells cultured in medium described above were plated in 96-well Costar plates (Corning) at a density of 1×10^3 cells/well (lymphoma cell lines) or 2×10^5 cells/well (lymph node cells) and exposed to various concentrations of test compounds for up to 5 days at 37° C. in a humidified incubator with 5% CO2. Effects on proliferation were determined using the CellTiter 96® Aqueous Non-Radioactive Cell Proliferation Assay (Promega) according to manufacturer's instructions. In general, proliferation was indirectly measured using a soluble tetrazolium salt (MTS) and an electron coupling agent. MTS bioreduction into a formazan product soluble in tissue culture medium was monitored by absorbance at 490 nm on a Spectramax plate reader using Softmax Pro 4.6 software (Molecular Devices). […] (4) Data Analysis: For nodal tissue, data were handled in the following manner through Prism 4.0 (Graphpad Software). Mean values from raw optical density values (OD) were calculated for the Un-stimulated, Simulated and all Drug Treatment (triplicates) and used in the following formula:
(Mean Drug Treatment OD−Mean Un-stim OD)×100=% Control Proliferation
(Mean Stim OD−Mean Un-stim OD)
Once calculated, these values for each drug concentration (or standard) were graphed and an IC50 calculated by a point to point analysis. Percent control values were not allowed to exceed 100% or fall below 0% for analysis of IC50 values.

[6] = MSU LN 1, chemotherapy resistant B-cell LSA, stimulant SAC + IL-2
[7] = MSU LN 1 ID618801, chemotherapy resistant B-cell LSA, stimulant LPS + ConA
[8] = MSU LN 6, chemotherapy resistant T-cell LSA, stimulant SAC + IL-2
[9] = MSU LN 6 ID401557, chemotherapy resistant T-cell LSA, stimulant LPS + ConA
[10] = MSU LN 7 ID663780, chemotherapy resistant T-cell LSA, stimulant LPS + ConA
[11] = MSU LN 8, de novo T-cell lymphoma, stimulant SAC + IL-2
[12] = MSU LN 8 ID668165, de novo T-cell lymphoma, stimulant LPS + ConA
[13] = MSU LN 10 ID401979, chemotherapy resistant B-cell LSA, stimulant LPS + ConA

CC(=O)[C@]1(O)Cc2c(O)c3c(c(O)c2[C@@H](O[C@H]2C[C@H](N)[C@H](O)[C@H](C)O2)C1)C(=O)c1ccccc1C3=O [Idarubicin, idarubicin]
IC50 [1]: 2.7 nM | IC50 [2]: 1.9 nM | Inhibition of the proliferation of canine lymphoma cell lines [3]: inhibited | Oral bioavailability, effect of feeding [4]: not adversely affected by feeding | Potency and cytotoxicity compared with doxorubicin ([5]; all nodal and cell line lymphomas regardless of B or T-cell lineage): more potent and cytotoxic than doxorubicin | Inhibition of proliferation compared with doxorubicin ([5]; all nodal tissue from dogs diagnosed with chemotherapy resistant lymphomas): more effective | Inhibition of the proliferation of canine lymphoma nodal tissues [5]: dose dependent inhibition | IC50 [5, 6]: 7.5 nM | IC50 [5, 7]: 7.5 nM | IC50 [5, 8]: 2.5 nM | IC50 [5, 9]: 3 nM | IC50 [5, 10]: 2.5 nM | IC50 [5, 11]: 3 nM | IC50 [5, 12]: 4 nM | IC50 [5, 13]: 56 nM | IC50 ([5]; MSU LN 11 ID671795, de novo B-cell LSA, stimulant LPS + ConA): 4 nM | IC50 ([5]; MSU LN 14 ID403527, de novo T-cell LSA, stimulant Con A): 11 nM

COc1cccc2c1C(=O)c1c(O)c3c(c(O)c1C2=O)C[C@@](O)(C(=O)CO)C[C@@H]3O[C@H]1C[C@H](N)[C@H](O)[C@H](C)O1 [Doxorubicin, doxorubicin]
IC50 [2]: 4.3 nM | Inhibition of the proliferation of canine lymphoma cell lines [3]: inhibited | Inhibition of the proliferation of canine lymphoma nodal tissues [5]: dose dependent inhibition | IC50 [5, 6]: 11 nM | IC50 [5, 7]: 55 nM | IC50 [5, 8]: 13 nM | IC50 [5, 9]: 28 nM | IC50 [5, 10]: 10 nM | IC50 [5, 11]: 7 nM | IC50 [5, 12]: 9 nM | IC50 [5, 13]: > 100 nM
